Measurements from patent US9029080B2, “Screening assay for insecticides” (priority 2008, dated 2015).
Where two headings read alike, the source gives them in different places.

Legend:
ShaI_delN = molecular target: T1, ShaI_delN (Drosophila melanogaster, UniProt P17971); experiment: ShaI_delN clonal lines, FLIPR blue membrane potential dye, KCl depolarization; assay type: cell-based; details: both the ShaI_delN clonal lines and the control pcDNA3 cell line, FLIPR
T1 construct: expressed in transfected cells; host or cells: CHO
Procedure: ShaI_DelN C10 and C15 were tested for function on the FLIPR using the Molecular Devices blue membrane potential dye. The cells were seeded at 60K cells/well in 96-well Costar plates in complete media and assayed for function at 24 hrs. Depolarization with 15-60 mM KCl caused a 2-2.8 fold higher activity in the clonal line than the pcDNA control cell line (FIG. 5). Clone 10 had slightly higher activity than clone 15.
FIG. 5: ShaI_DelN clones tested on FLIPR with KCl depolarization. We also tested some known K-channel blockers on channel activity on the FLIPR (FIG. 6). […] The ShaI_delN clonal cell lines lost their GFP expression and assay window with cell passage. At passage 12, only 10-15% of the cell population was GFP positive.
The effects of barium (Ba2+) on ShaI_delN function were tested. Barium is known to inhibit some open rectifier and inward rectifier K-channel activities. Cells were dye loaded in the presence of BaCl2 for 1 hr at RT and assayed on the FLIPR using KCl depolarization for channel activation.

ShaI/KChIP = molecular target: T2, ShaI/KChIP (Drosophila melanogaster, UniProt P17971); experiment: ShaI/KChIP FLIPR membrane potential assay, KCl depolarization; assay type: cell-based
T2 construct: expressed in transfected cells; subclone 18-13-20
T2 sequence (P17971 with tags, fused parts or gaps isoform P17971-1): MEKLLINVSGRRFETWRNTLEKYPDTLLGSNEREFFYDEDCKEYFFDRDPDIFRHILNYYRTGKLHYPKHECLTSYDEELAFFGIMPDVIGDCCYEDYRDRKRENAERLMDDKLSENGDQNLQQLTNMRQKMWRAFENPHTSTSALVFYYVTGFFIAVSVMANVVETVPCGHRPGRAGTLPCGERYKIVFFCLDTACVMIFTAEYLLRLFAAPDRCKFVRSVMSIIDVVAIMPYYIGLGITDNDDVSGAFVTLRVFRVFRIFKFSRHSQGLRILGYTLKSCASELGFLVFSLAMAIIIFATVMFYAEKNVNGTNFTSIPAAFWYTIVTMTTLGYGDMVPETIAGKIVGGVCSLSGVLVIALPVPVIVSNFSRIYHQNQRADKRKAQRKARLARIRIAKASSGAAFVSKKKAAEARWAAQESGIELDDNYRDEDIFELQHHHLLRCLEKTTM
Procedure: This assay uses two fluid additions to permit the detection of activators and antagonists in a single experiment (FIG. 17). In screening, test compounds are added in the first addition and allowed to incubate for three minutes. An activating dose of KCl is then introduced in the second addition and the fluorescence read for an additional three minutes. Controls are run for both additions.
Cells were dispensed in a 50 μl volume containing 7,500 cells into 384-well TC clear/black assay plates (Greiner 781091) using a Multidrop 384 dispenser, incubated at ambient temperature for one hour (to reduce edge effects), and incubated overnight at 37° C./5% CO2. The cells were assayed 18-24 hours after seeding, at which point they were just approaching confluency in the wells. Culture medium was removed by flicking and tapping it out of the plate, and cells were loaded with 20 ul/well of 1× blue membrane potential dye in assay buffer for 30 minutes at 25° C. After 30 minutes the assay plate was placed into the FLIPR and run using a two-addition protocol. The first addition (5×, 5 ul) contained 2.5% DMSO in assay buffer. The pipetting height was set at 15 and the speed 20. The plate was read for three minutes after this addition. The second addition (2×, 25 ul) was either assay buffer or 120 mM isometrically-substituted KCl (i.e., KCl substituted for NaCl on a 1:1 molar basis). The height was 20 and the speed 25. Aspirate speeds were set at the lowest values and no hold or expel volumes applied. The plate was read for an additional three minutes after the second addition. The exported statistics were typically configured as stat1=average of 190-200 (the interval just before the first addition) and stat2=maximum of 260-maximum allowed. Subtract bias was set at 1 and negative control correction was OFF. Z′ statistics (an index of “screenability”, Z′>0.5=single-pass screen) were calculated using the following formula: Z′=1−((3σmax+3σmin)/(Iμmax−μminI)).
FIG. 32: BIOMOL compounds—primary screening data. ScreenWorks screenshots showing primary FLIPR data for BIOMOL compound screening. ShaI/KChIP 20 cells were plated at 7500 cells/well in 384-well assay plates and screened the following day. Culture medium was removed by flicking the plates and the cells were loaded with 20 ul 1× membrane potential dye per well for 0.5 hours at 25° C. A two-addition protocol was used. The first addition was 5 ul 5× control or compound in 2.5% DMSO in assay buffer (0.5% [final]) read for 180 sec, and the second addition was 25 ul 2× control or 120 mM isometrically-substituted KCl in assay buffer (0-60 mM [final]) read for an additional 180 sec. Statistics were exported using the average of reads 180-200 and the maximum of reads 260-maximum allowed. Subtract bias was set at 1 and negative control correction was OFF. Control columns ½ and 23/24 are described starting on pg. 53 of this document. Inset: Screenshot of group averages for the control and compound wells highlighted in the primary data screen.
The 3222 unique members of the BioFocus SoftFocus Ion Channel Libraries #1-4 (#SF101-04) were screened in 384-well four-point mode against ShaI/KChIP at 10 uM in a combined activator and antagonist screen. The same FLIPR protocol was used as for the BIOMOL screening and was carried out over four non-consecutive days. The following compound preparation protocol was used to prepare screening plates: Briefly, ShaI-KChIP cells were seeded in 384-well plates at 7500 cells/well in 50 ul and incubated overnight at 37° C./5% CO2. The next day, culture medium was removed, 20 ul of 1×FMP dye was added, and the cell plate was incubated at 27° C. for 30 minutes. After incubation, the cell plate was placed into the Tetra and a two-addition protocol was used. The 1st addition was 5 μl of 5× compound (50 μM) with a three minute read. […] The 2nd addition was 25 ul of 2× activation buffer (120 mM isometric KCl substitution for NaCl) and read for an additional two minutes. […]

[1] = molecular target: T3, Shaker channel plus H-kvβ A subunit (Drosophila melanogaster, UniProt P08510, INS512V); assay type: cell-based
T3 construct: expressed in transfected cells; host or cells: CHO-K1
Procedure: In order to detect the membrane depolarization elicited by KCl injection, the Membrane Potential sensitive dye was used both for FLIPR384 and […] experiments. Cells were analyzed in 384 clear-bottom black MPTs (MATRIX cat. #4324) by seeding 5000, 7500, 10000 cells/well 24 hrs before experiment. Plates were incubated with 40 μl/w of 0.625× membrane potential dye for 45-60 minutes at 37° C. or room temperature and measured at FLIPR instrument by injecting 10 μl/w of 5× antagonist (in the presence of 0.5% DMSO, as indicated) followed by 3-5 minutes fluorescence reading; then a second injection of 25 μl/w of 3× KCl in Standard Tyrode solution) was performed and fluorescence measured for further 3-4 minutes. In experiments with a single injection (agonist), plates were incubated with 20 μl/w of 1× dye and injected with 20 μl/w of 2× KCl in Standard Tyrode solution.
Kinetic data obtained from different well replicates were analyzed with FLIPR, Excel and Spotfire software, by calculating the Integral or Maximum-Minimum RFU values after the injection; the obtained means and standard deviations were utilized to create sigmoidal dose-response fits by GraphPad PRISM® or Spotfire software and to calculate EC50-IC50 values and Z′ factors.
FIG. 42. […]

SK2 channel = SK2 channel (Homo sapiens, UniProt Q9H2S1); details: patch clamp; cited from earlier work
[2] = molecular target: T4, octopamine receptor (OctR, CG6919 dmOa2) (Drosophila melanogaster, UniProt Q9VCZ3); experiment: OctR clone 55 FLIPR Fluo-4 calcium assay; assay type: cell-based; details: clone 55, same as published cAMP data
T4 construct: expressed in transfected cells; host or cells: CHO stably expressing G-alpha-16
Procedure: FIG. 62. Cells were plated at 10K/well in 384 well plates and allowed to incubate overnight at […]. The cells were assayed 18-24 hours after seeding. Media was removed and cells were dye loaded for 60 minutes with 2 μM Fluo-4. After 1 hour, dye was removed and 20 μl of buffer added to the plate and placed into FLIPR. The 1st addition was antagonist dose response curves and the 2nd addition was agonist dose response curves. Antagonists were challenged with 100 nM Octopamine. In addition, these compounds were tested in the parental cell line CHO-Galpha16.
Cells were plated at 10,000 cells/well in 50 μl into 384-well black TC plates and allowed to incubate overnight at 37° C./5% CO2. The cells were assayed 18-24 hours after seeding. Culture medium was removed by flicking and cells were dye loaded for 60 minutes with 20 μl of 2 μM Fluo-4 in assay buffer plus probenecid at 25° C. After one hour dye was removed by flicking and 20 μL of assay buffer was added, wait 5 min prior to placing into the FLIPR and run using a two-addition protocol. The first addition (20 ul, 2×) was 0.5% DMSO final in assay buffer. The second addition (20 ul, 3×) was either assay buffer or 100 nM octopamine final.

Compound: C=C[C@H]1CN2CC[C@@H]1CC2[C@@H](O)c1ccnc2ccc(OC)cc12 (stereo in doubt) [quinidine, (2-ethenyl-4-azabicyclo[2.2.2]oct-5-yl)-(6-methoxyquinolin-4-yl)-methanol]
- inhibition of KCl depolarization (ShaI_delN): dose dependent inhibition

Compound: COC(=O)C1=C(C)NC(C)=C([N+](=O)[O-])C1c1ccccc1C(F)(F)F (stereo not drawn) [Bay K8644]
- inhibition of KCl depolarization (ShaI_delN): dose dependent inhibition

Compound: O=C(NCC1CCCCN1)c1cc(OCC(F)(F)F)ccc1OCC(F)(F)F (stereo not drawn) [Flecainide]
- inhibition of KCl depolarization (ShaI_delN): did not show any inhibition

Compound: [Cl-].[K+] [KCl, reference compound]
- EC50 (ShaI/KChIP; ShaI/KChIP 18-13 cells, isometrically-substituted KCl, fixed top response, read-out: EC50): 30 mM
- EC50 (ShaI/KChIP; ShaI/KChIP 20 cells, three days, standard deviation 5 mM, read-out: EC50 mean): 36 mM
- Activator concentration (~EC80) ([1]; in Activation buffer, high-throughput screening parameter): ~50 mM

Compound: CC[N+](CC)(CC)CC [TEA, Tetraethylammonium]
- effect on KCl stimulation [1]: blocking effect is visible

Compound: CN(C)CCC=C1c2ccccc2CCc2ccccc21 [amitriptyline]
- block of SK2 channel currents (SK2 channel): micro-molar affinity

Compound: NC(=O)N1c2ccccc2C=Cc2ccccc21 [carbamazepine]
- block of SK2 channel currents (SK2 channel): micro-molar affinity

Compound: Clc1cccc(Cl)c1N=C1NCCN1 [clonidine]
- rank order of potency (agonists) [2]: naphazoline>octopamine>amitraz>clonidine>tolazoline

Compound: c1ccc2c(CC3=NCCN3)cccc2c1 [naphazoline]
- rank order of potency (agonists) [2]: naphazoline>octopamine>amitraz>clonidine>tolazoline

Compound: COC(=O)C1=C(C)NC(C)=C(C(=O)OCCN(C)Cc2ccccc2)C1c1cccc([N+](=O)[O-])c1 (stereo not drawn) [nicardipine]
- inhibition of KCl depolarization (ShaI_delN): dose dependent inhibition

Compound: O=C(O)c1cccnc1Nc1cccc(C(F)(F)F)c1 [niflumic acid]
- inhibition of KCl depolarization (ShaI_delN): dose dependent inhibition

Compound: Nc1c2c(nc3ccccc13)CCCC2 [tacrine]
- block of SK2 channel currents (SK2 channel): micro-molar affinity

Compound: c1ccc(CC2=NCCN2)cc1 [tolazoline]
- rank order of potency (agonists) [2]: naphazoline>octopamine>amitraz>clonidine>tolazoline
